These results are taken from article PMC8409973, “Synthesis, antiproliferative and antitrypanosomal activities, and DNA binding of novel 6-amidino-2-arylbenzothiazoles” (Journal of Enzyme Inhibition and Medicinal Chemistry, 2021).

The test system of series [1] is SW620 (colorectal adenocarcinoma, metastatic). The series is described as follows: Proliferation assay (MTT, 72 h) on SW620. In kind it is cell-based. As to conditions: Homo sapiens, SW-620, SW620, 72 h. The method, then: (§1) Human cell lines SW620 (colorectal adenocarcinoma, metastatic), MCF-7 (human breast adenocarcinoma), CFPAC-1 (pancreatic adenocarcinoma), HeLa (cervical carcinoma), and HFF-1 (human foreskin fibroblasts) were obtained from the American Type Culture Collection (ATCC). Cells were cultured in a humidified atmosphere at 37 °C with 5% CO2. As a growth medium, Dulbecco’s modified Eagle medium (DMEM) was used with the addition of foetal bovine serum (10%), L-glutamine (2 mM), and antibiotics: streptomycin ([…]) and penicillin (100 U/ml).
(§2) Cells were seeded onto 96-well microtiter plates at a seeding density of 3000 cells/well for carcinoma cell lines, and 5000 cells/well for normal human fibroblasts. The next day, cells were treated with test agents at five different concentrations (0.01–100 µM) and further incubated for 72 h. […] 5-Fluorouracil (5-FU, 0.384 M fluorouracilum, Pliva 500 mg/10 ml) dissolved in physiological solution was used as a positive control. Following 72 h incubation, the MTT assay was performed and measured absorbances were transformed into a percentage of cell growth as described previously. Results were obtained from three independent experiments. IC50 values were calculated using linear regression analysis (FORECAST option taking into account the concentration range of two experimental points above and below IC50).

Series [2] concerns CFPAC-1 (pancreatic adenocarcinoma). Description: Proliferation assay (MTT, 72 h) on CFPAC-1. In kind it is cell-based. As to conditions: Homo sapiens, CFPAC-1, 72 h. The method, then:
as §1, §2

Series [3] concerns L6 cells (a rat myoblast line). Description: L6 cell proliferation (cytotoxicity, resazurin). In kind it is cell-based. As to conditions: for IC50: 144 h, rat myoblast L6, 6 days; for SI IC50 (L6/Tb): SI = [IC50 L6 cells]/[IC50 T. brucei].
Series [4] deals with Bloodstream form T. b. brucei (strain 221). Description: Antitrypanosomal screening (resazurin). In kind it is cell-based. As to conditions: Trypanosoma brucei; for IC90: concentration that inhibited growth by 90%, mean ± SEM; for IC50: mean of triplicate ± SEM. On the procedure: Resazurin (20 μl at 0.125 mg ml^−1) was added after 48 h, the plates were incubated for a further 16 h, and then read in a Spectramax plate reader, and data analysed using GraphPad Prism. Each drug was tested in triplicate.
(The colour change of resazurin is a common sign of viable cells or microbes.)

For series [5], the system named is HFF-1 (human foreskin fibroblasts). Description: Proliferation assay (MTT, 72 h) on normal fibroblasts HFF-1. In kind it is cell-based. As to conditions: HFF-1 normal fibroblasts. The method, then: as §1, §2
Series [6] relates to MCF-7 (human breast adenocarcinoma). The series is described as follows: Proliferation assay (MTT, 72 h) on MCF-7. The conditions noted are these: MCF7, MCF-7, 72 h. In kind it is cell-based. The method, then: as §1, §2
Series [7] relates to HeLa (cervical carcinoma). Description: Proliferation assay (MTT, 72 h) on HeLa. In kind it is cell-based. As to conditions: Homo sapiens. The method, then: as §1, §2

Where a name gives a salt, the structure may show the parent alone.

As a reminder, the melting point is the temperature, or range, at which the solid turns liquid. In turn, `N=C(N)c1ccc2nc(-c3ccc(OCc4cn(-c5ccccc5)nn4)cc3)sc2c1` (as salt: methanesulfonate) [10a] yielded a melting point of 272 to 275 °C.
The same measure, in the same setting: then `N=C(N)c1ccc2nc(-c3ccc(OCc4cn(-c5ccc(Cl)cc5)nn4)cc3)sc2c1` (as salt: methanesulfonate) [10b], with 276 to 279 °C.
Turning to `COc1ccc(-n2cc(COc3ccc(-c4nc5ccc(C(=N)N)cc5s4)cc3)nn2)cc1` (as salt: methanesulfonate) [10c], the melting point lay within 265 to 270 °C.
Turning to `N=C(N)c1ccc2nc(-c3ccc(OCc4cn(Cc5ccccc5)nn4)cc3)sc2c1` (as salt: methanesulfonate) [10d], the melting point was 253 to 257 °C.
Consider `N=C(N)c1ccc2nc(-c3cn(-c4ccccc4)nn3)sc2c1` (as salt: methanesulfonate) [13a, 6-Amidinium-2-(1-phenyl-1H-1,2,3-triazole-4-yl)benzothiazole methanesulfonate], for which the melting point lay in the range of 289 to 293 °C.
Same read-out and setting: the same measure for `N=C(N)c1ccc2nc(-c3cn(-c4ccc(Cl)cc4)nn3)sc2c1` (as salt: methanesulfonate) [13b, 6-Amidinium-2-[1-(4-chlorophenyl)-1H-1,2,3-triazole-4-yl]benzothiazole methanesulfonate]: more than 300 °C; for `COc1ccc(-n2cc(-c3nc4ccc(C(=N)N)cc4s3)nn2)cc1` (as salt: methanesulfonate) [13c, 6-Amidinium-2-[1-(4-methoxyphenyl)-1H-1,2,3-triazole-4-yl]benzothiazole methanesulfonate]: more than 300 °C.
Still for that read-out and setting: then `N=C(N)c1ccc2nc(-c3cn(Cc4ccccc4)nn3)sc2c1` (as salt: methanesulfonate) [13d, 6-Amidinium-2-(1-benzyl-1H-1,2,3-triazole-4-yl)benzothiazole methanesulfonate], with 262 to 267 °C.
In general, IC50 refers to the midpoint of a concentration-inhibition curve. Higher therefore signals weaker potency. In general, IC90 refers to the concentration at which the effect reaches the 90% level. Read a low IC90 as greater potency. For `N=C(N)c1ccc2nc(-c3ccc(OCc4cn(-c5ccccc5)nn4)cc3)sc2c1` [10a], the IC50 is 2.89 ± 0.03 µM in series [1]; 3.34 ± 0.19 µM in series [2]; less than 2 µM in series [3]; 1.17 ± 0.1 µM in series [4]; 0.17 ± 0.04 µM in series [5]; 3.39 ± 1.17 µM in series [6]. Moreover, the half-maximal inhibitory concentration (IC50) in series [7] was determined as 2.89 ± 0.11 µM. Moreover, it took 1.45 ± 0.11 µM to reach the 90% level in series [4] (IC90).
As for `COc1ccc(-n2cc(COc3ccc(-c4nc5ccc(C(=N)N)cc5s4)cc3)nn2)cc1` [10c], the concentration for half-maximal inhibition (IC50) in series [1] was 3.86 ± 0.29 µM; in series [2] it was 3.45 ± 0.29 µM; in series [3], less than 2 µM; in series [4], 1 ± 0.07 µM; in series [5], 0.31 ± 0.08 µM; in series [6], 3.66 ± 1.49 µM. The molecule also displayed an IC50 in series [7] of 2.87 ± 1.24 µM. In series [4], this molecule returned an IC90 of 1.26 ± 0.02 µM.
Take `N=C(N)c1ccc2nc(-c3ccc(OCc4cn(Cc5ccccc5)nn4)cc3)sc2c1` [10d]: the concentration for half-maximal inhibition (IC50) was found to be 1.18 ± 0.18 µM in series [1]; 5.15 ± 0.23 µM in series [2]; 0.76 ± 0.18 µM in series [5]; 3.02 ± 0.98 µM in series [6]; 1.77 ± 0.45 µM in series [7].
In turn, `COc1ccc(-n2cc(COc3nc4ccc(C5=NCCN5)cc4s3)nn2)cc1.CS(=O)(=O)O` [11c, 6-(4,5-Dihydro-1H-imidazol-3-ium-2-yl)-2-{[1-(4-methoxyphenyl)-1H-1,2,3-triazol-4-yl]methoxy}benzothiazole methanesulfonate] returned a melting point of 253 to 257 °C. The molecule also came in with an IC50 in series [1] of 0.5 ± 0.16 µM. The molecule further came in with an IC50 in series [2] of 2.06 ± 0.7 µM. In addition, the IC50 in series [3] was less than 2 µM. In series [4], this molecule yielded an IC90 of 0.23 ± 0.05 µM and an IC50 of 0.19 ± 0.04 µM. Also, in series [5], the 50% inhibitory concentration (IC50) was 0.24 ± 0.13 µM. This molecule came in with an IC50 in series [6] of 0.86 ± 0.97 µM. The concentration for half-maximal inhibition (IC50) in series [7] was 2.53 ± 0.01 µM.
For `CS(=O)(=O)O.c1ccc(-n2cc(COc3nc4ccc(C5=NCCCN5)cc4s3)nn2)cc1` [12a, 6-(3,4,5,6-Tetrahydropyrimidin-1-ium-2-yl)-2-[(1-phenyl-1H-1,2,3-triazol-4-yl)methoxy] benzothiazole methanesulfonate], the melting point fell in the range of 249 to 254 °C. Moreover, in series [1], the IC50 was determined as 4.17 ± 0.28 µM. The midpoint of inhibition in series [2], the IC50, lay at 3.98 ± 0.29 µM. Further, in series [5], the midpoint of inhibition, the IC50, lay at 0.44 ± 0.03 µM. In addition, half-maximal inhibition in series [6] (IC50) was put at 3.98 ± 0.04 µM. In series [7], this molecule showed a half-inhibitory concentration (IC50) of 2.95 ± 0.38 µM.
On to `CS(=O)(=O)O.c1ccc(Cn2cc(COc3nc4ccc(C5=NCCCN5)cc4s3)nn2)cc1` [12d, 6-(3,4,5,6-Tetrahydropyrimidin-1-ium-2-yl)-2-[(1-benzyl-1H-1,2,3-triazol-4-yl)methoxy]benzothiazole methanesulfonate], for which the melting point fell in the range of 197 to 199 °C. In addition, the IC50 in series [1] was 7.94 ± 2.58 µM. For the same molecule, in series [2], half-maximal inhibition (IC50) required 23.4 ± 0.29 µM. Besides, the midpoint of inhibition in series [5], the IC50, lay at 1.74 ± 0.29 µM. The same molecule registered a half-maximal inhibitory concentration (IC50) in series [6] of 6.01 ± 0.53 µM. This molecule also displayed a 50% inhibitory concentration (IC50) in series [7] of 8.6 ± 0.85 µM.
`N=C(N)c1ccc2nc(-c3cn(-c4ccccc4)nn3)sc2c1` [13a, 6-Amidinium-2-(1-phenyl-1H-1,2,3-triazole-4-yl)benzothiazole methanesulfonate]: the IC50 came to 24.2 ± 4.31 µM in series [1]; 26.6 ± 4.69 µM in series [2]; 7.97 ± 0.96 µM in series [3]; 2.02 ± 0.1 µM in series [4]; 2.07 ± 0.13 µM in series [5]; 25.6 ± 3.15 µM in series [6]. In addition, the half-maximal inhibitory concentration (IC50) in series [7] is 7.77 ± 0.05 µM. The “SI IC50 (L6/Tb)” value in series [3] is on record as 3.9. The molecule also displayed a concentration for an effect of 90% (IC90) in series [4] of 2.52 ± 0.34 µM.
In the case of `N=C(N)c1ccc2nc(-c3cn(-c4ccc(Cl)cc4)nn3)sc2c1` [13b, 6-Amidinium-2-[1-(4-chlorophenyl)-1H-1,2,3-triazole-4-yl]benzothiazole methanesulfonate], the concentration for half-maximal inhibition (IC50) in series [1] was found to be 3.55 ± 0.85 µM; in series [2], 3.17 ± 0.11 µM; in series [3], 2.69 ± 0.42 µM; in series [4], 0.67 ± 0.07 µM; in series [5], 0.85 ± 0.05 µM; in series [6], 3.32 ± 0.01 µM. In series [7], this molecule returned a half-maximal inhibitory concentration (IC50) of 2.74 ± 0.21 µM. Besides, the “SI IC50 (L6/Tb)” value in series [3] is 4.0. Further, in series [4], it took 1.02 ± 0.02 µM to reach the 90% level (IC90).
`COc1ccc(-n2cc(-c3nc4ccc(C(=N)N)cc4s3)nn2)cc1` [13c, 6-Amidinium-2-[1-(4-methoxyphenyl)-1H-1,2,3-triazole-4-yl]benzothiazole methanesulfonate]: the IC50 in series [1] came to 5.39 ± 0.41 µM; in series [2] it was 5.23 ± 0.87 µM; in series [5], 2.99 ± 1.17 µM; in series [6], 4.5 ± 0.43 µM; in series [7], 3.64 ± 1.44 µM.
`N=C(N)c1ccc2nc(-c3cn(Cc4ccccc4)nn3)sc2c1` [13d, 6-Amidinium-2-(1-benzyl-1H-1,2,3-triazole-4-yl)benzothiazole methanesulfonate]: the IC50 came out at 9.48 ± 0.29 µM in series [1]; 25.9 ± 3.71 µM in series [2]; 4.04 ± 1.35 µM in series [5]; 22.6 ± 0.91 µM in series [6]; 14.9 ± 1.54 µM in series [7].
For the molecule `CS(=O)(=O)O.c1ccc(-n2cc(-c3nc4ccc(C5=NCCCN5)cc4s3)nn2)cc1` [15a, 6-(3,4,5,6-Tetrahydropyrimidin-1-ium-2-yl)-2-(1-phenyl-1H-1,2,3-triazole-4-yl)benzothiazole methanesulfonate], the melting point lay in the range of 269 to 274 °C. Also, half-maximal inhibition in series [1] (IC50) required 4.15 ± 1.58 µM. For the same molecule, the IC50 in series [2] is 37.6 ± 4.58 µM. The same molecule had a half-maximal inhibitory concentration (IC50) in series [5] of 0.53 ± 0.1 µM. The molecule further gave an IC50 in series [6] of 8.31 ± 0.12 µM. The molecule also had an IC50 in series [7] of 7.62 ± 0.84 µM.
Consider `COc1ccc(-n2cc(-c3nc4ccc(C5=NCCCN5)cc4s3)nn2)cc1.CS(=O)(=O)O` [15c, 6-(3,4,5,6-Tetrahydropyrimidin-1-ium-2-yl)-2-[1-(4-methoxyphenyl)-1H-1,2,3-triazole-4-yl]benzothiazole methanesulfonate], for which the melting point was in the range of 261 to 265 °C. In series [1], this molecule registered an IC50 of 4.07 ± 1.06 µM. This molecule also had an IC50 in series [2] of 4.74 ± 0.14 µM. The 50% inhibitory concentration (IC50) in series [5] is 1.33 ± 0.17 µM. Further, it took 4.28 ± 0.06 µM to reach half-maximal inhibition in series [6] (IC50). This molecule came in with an IC50 in series [7] of 4.3 ± 0.41 µM.
In the case of `CS(=O)(=O)O.c1ccc(Cn2cc(-c3nc4ccc(C5=NCCCN5)cc4s3)nn2)cc1` [15d, 6-(3,4,5,6-Tetrahydropyrimidin-1-ium-2-yl)-2-(1-benzyl-1H-1,2,3-triazole-4-yl)benzothiazole methanesulfonate], the melting point was in the range of 170 to 174 °C. In series [1], the IC50 came out at 31.9 ± 8.38 µM. Besides, the IC50 in series [2] amounted to 49.9 ± 12.5 µM. Also, in series [5], half-maximal inhibition (IC50) was put at 18.9 ± 0.19 µM. The molecule further came in with an IC50 in series [6] of 40.6 ± 10.6 µM. The molecule also yielded a concentration for half-maximal inhibition (IC50) in series [7] of 31 ± 4.5 µM.
